In assay [1] the test system is L1210. Kind of assay: Inhibitory concentration required against L1210 leukemia cells. In kind it is functional, cell-based. The following applies: Mus musculus.
Assay [2] deals with L1210. Kind of assay: Effect of compound on L1210 cell cycle was determined and percent of treated cells in the G2M phase of L1210 leukemia cells was determined. Format: functional, Mus musculus.
Assay [3] deals with L1210. Conditions: Mus musculus.
Description: Effect on L1210 cell cycle was determined and percent of treated cells in the G1 phase of L1210 leukemia cells was determined; NS implies not significant.
The test system of assay [4] is L1210. Conditions: Mus musculus. The source holds these as a separate data set.
Description: Effect on L1210 cell cycle was determined and percent of treated cells in the G2M phase of L1210 leukemia cells was determined; NS implies not significant.
Assay [5] relates to L1210. Kind of assay: Effect of compound on L1210 cell cycle was determined and percent of treated cells in the G2M phase of L1210 leukemia cells. Format: functional, Mus musculus.
For assay [6], the system named is L1210. Kind of assay: Effect on L1210 cell cycle was determined and percent of treated cells in the G1 phase of L1210 leukemia cells was determined. Format: functional, Mus musculus.
Assay [7] deals with L1210. Kind of assay: Cytotoxic concentration against L1210 leukemia cells was determined; 30% apoptosis ([…]) was observed. In kind it is functional, cell-based. Conditions: Mus musculus.

Molecules are shown by their SMILES.

Regarding `CC[C@@]1(O)C(=O)OCc2c1cc1n(c2=O)Cc2cc3ccccc3nc2-1` [CAMPTOTHECIN], in the assay with L1210 [1], 0.03 µM corresponded to half-maximal inhibition (IC50). Besides, the Treated cells with L1210 [2] was determined as 80%.
For the compound `COc1cccc2c1C(=O)c1c(O)c3c(c(O)c1C2=O)C[C@@](O)(C(=O)CO)C[C@@H]3O[C@H]1C[C@H](N)[C@H](O)[C@H](C)O1` [DOXORUBICIN], the Treated cells with L1210 [2] stood at 81%.
As for `CCc1cc2c3c(cc[n+]2nc1CC)c1ccccc1n3CCCBr`, the midpoint of inhibition in the assay on L1210 [1], the IC50, lay at 1.9 µM. For the same compound, the Treated cells entry in the assay on L1210 [3] and with L1210 [4] was “Not significant” throughout.
For the compound `CCc1cc2c3[nH]c4cc(O)ccc4c3cc[n+]2nc1CC`, the midpoint of inhibition in the assay on L1210 [1], the IC50, lay at 10 µM. In addition, the Treated cells result in the assay with L1210 [3] and in the assay on L1210 [4] was “Not significant” in each case.
In the case of `Cc1cc2c3[nH]c4cc(OCc5ccccc5)ccc4c3cc[n+]2nc1C`, in the assay with L1210 [1], the IC50 (commonly the concentration at which inhibition is half-maximal) amounted to 5.2 µM. The Treated cells entry in the assay on L1210 [3] and with L1210 [4] was “Not significant” throughout.
Turning to `CCc1cc2c3[nH]c4cc(OC)ccc4c3cc[n+]2nc1CC`, half-maximal inhibition in the assay on L1210 [1] (IC50) was put at 2 µM. In addition, the Treated cells in the assay with L1210 [5] stood at 35%.
Compound `CCOC(=O)Cn1c2cc(OC)ccc2c2cc[n+]3nc(CC)c(CC)cc3c21` returned an IC50 with L1210 [1] of 1.1 µM. Also, in the assay with L1210 [2], the Treated cells amounted to 46%.
The compound `CCCCCn1c2cc(OC)ccc2c2cc[n+]3nc(C)c(C)cc3c21` gave an IC50 in the assay with L1210 [1] of 0.048 µM. The same compound had a Treated cells in the assay with L1210 [6] of 57%.
`CCc1cc2c3[nH]c4ccc([N+](=O)[O-])cc4c3cc[n+]2nc1CC` returned a 50% inhibitory concentration (IC50) with L1210 [1] of 15.3 µM. The Treated cells result in the assay on L1210 [3] and in the assay on L1210 [4] was “Not significant” each time.
`C#CCCCn1c2cc(OC)ccc2c2cc[n+]3nc(-c4ccco4)c(-c4ccco4)cc3c21` came in with an IC50 in the assay with L1210 [1] of 1.3 µM. In the assay on L1210 [6], the Treated cells turned out to be 54%.
In the assay with L1210 [1], `CCOC(=O)Cn1c2cc(OC)ccc2c2cc[n+]3nc(C)c(C)cc3c21` came in with an IC50 of 5 µM. For the same compound, the Treated cells entry with L1210 [3] and in the assay with L1210 [4] was “Not significant” throughout.
Turning to `CCc1cc2c3[nH]c4c(N)cccc4c3cc[n+]2nc1CC`, inhibition with L1210 [1] was half-maximal at 1 µM (IC50). In the assay on L1210 [7], the Concentration came out at 5 µM. The Treated cells result in the assay with L1210 [3] and in the assay with L1210 [4] was “Not significant” each time.
As to `CCOC(=O)CCCn1c2cc(OC)ccc2c2cc[n+]3nc(CC)c(CC)cc3c21`, in the assay on L1210 [1], the IC50 was found to be 2 µM. Moreover, the Treated cells result with L1210 [3] and in the assay on L1210 [4] was “Not significant” each time.
As for `CCc1cc2c3[nH]c4c([N+](=O)[O-])cccc4c3cc[n+]2nc1CC`, in the assay on L1210 [1], the IC50 is 1.5 µM. Besides, in the assay with L1210 [7], the Concentration was determined as 5 µM. The Treated cells result with L1210 [3] and in the assay with L1210 [4] was “Not significant” each time.
As for `CCCCCn1c2cc(OC)ccc2c2cc[n+]3nc(CC)c(CC)cc3c21`, the IC50 with L1210 [1] came out at 0.065 µM. Further, in the assay on L1210 [6], the Treated cells was 60%.
As for `CCc1cc2c3[nH]c4cc(OCc5ccccc5)ccc4c3cc[n+]2nc1CC.[Br-]`, the IC50 in the assay on L1210 [1] was found to be 1.9 µM. The same compound showed a Treated cells with L1210 [6] of 54%.
Consider `COc1ccc2c(c1)[nH]c1c2cc[n+]2nc(C)c(C)cc12`, for which the midpoint of inhibition with L1210 [1], the IC50, lay at 1.3 µM. Moreover, the Treated cells with L1210 [5] was found to be 38%.
For the compound `CCc1cc2c3[nH]c4ccc(Br)cc4c3cc[n+]2nc1CC`, the IC50 with L1210 [1] amounted to 2.3 µM. Further, the Treated cells entry in the assay on L1210 [3] and in the assay on L1210 [4] was “Not significant” throughout.
In turn, `COc1ccc2c3cc[n+]4nc(/C=C/[Si](C(C)C)(C(C)C)C(C)C)c(/C=C/[Si](C(C)C)(C(C)C)C(C)C)cc4c3n(C)c2c1` showed an IC50 with L1210 [1] of 2.3 µM.
Regarding `C#CCNC(=O)Cn1c2cc(OC)ccc2c2cc[n+]3nc(CC)c(CC)cc3c21`, in the assay on L1210 [1], inhibition was half-maximal at 72.9 µM (IC50).
The compound `C#CCNC(=O)Cn1c2ccccc2c2cc[n+]3nc(-c4cccc5ccccc45)c(-c4cccc5ccccc45)cc3c21` came in with an IC50 with L1210 [1] of 10.4 µM. For the same compound, the Treated cells result with L1210 [3] and in the assay on L1210 [4] was “Not significant” throughout.
Consider `CCc1cc2c3c(cc[n+]2nc1CC)c1ccc(OC)cc1n3C`, for which, in the assay on L1210 [1], inhibition was half-maximal at 1.1 µM (IC50). For the same compound, in the assay with L1210 [6], the Treated cells was determined as 65%.

(Values after ChEMBL document CHEMBL1135332, “Synthesis and cytotoxic activity of pyridazino[1',6':1,2]pyrido[3,4-b]indol-5-inium derivatives as anti-cancer agents” (Bioorg Med Chem Lett, 2002).)
